Earlier results, collected in US11434242B2, “Dopamine-b-hydroxylase inhibitors” (BIAL-PORTELA & Cª, S.A., priority 2017, dated 2022).

Columns and labels:
[1] = literature; cited from earlier work
[2] = test system: DβH; details: Stanley et al., Br. J. Pharmacol. 1997; cited from earlier work

SMILES	toxic side effects [1]	crossing of the BBB [1]	IC50 [2] [nM]
CCN(CC)C(=S)S [diethyldithiocarbamate]	toxic side effects	–	–
CCN(CC)C(=S)SSC(=S)N(CC)CC [disulfiram]	toxic side effects	–	–
CCCCc1ccc(C(=O)O)nc1 [fusaric acid]	toxic side effects	–	–
NCc1c[nH]c(=S)n1[C@H]1CCc2c(F)cc(F)cc2C1 [nepicastat]	–	cross the BBB	9
